According to PMC5968561, “An effective strategy for recapitulating N-terminal heptad repeat trimers in enveloped virus surface glycoproteins for therapeutic applications” (Chemical Science, 2015):
Read-outs that look alike come from different tables or passages of the source. Positions of bridges follow the written chain, without caps; N, C: chain ends. Chains are numbered I, II in the order given.

Columns and labels:
[1] = Metabolic stability in kidney homogenate; type: in vitro ADME; conditions: SD rat, pooled from 3 rats, 4 mL Tris–HCl 50 mM pH 7.4 per g, 9,000 g supernatant, 10 μg/mL, 37°C, 0-120 min, LC-MS/MS, compared with T20
[2] = Metabolic stability in liver homogenate; type: in vitro ADME; conditions: SD rat, pooled from 3 rats, 4 mL Tris–HCl 50 mM pH 7.4 per g, 9,000 g supernatant, 10 μg/mL, 37°C, 0-120 min, LC-MS/MS, compared with T20
Cytotoxicity, XTT assay = type: cell-based; conditions: human, MT-2 cells, 4 days at 37°C, triplicate, mean ± SD
[3] = test system: HIV-1 NL4-3 (36G)V38E/N42S; conditions: read-out: EC50, NL4-3 mutant (36G)V38E/N42S; T20-resistant strain; triplicate, mean ± SD
93IN101 (C, R5) = type: cell-based, HIV-1
Description: (§1) HIV-1 infection assay. To measure the inhibitory activity of the peptides on infection of R5 primary HIV-1 isolates, US4/GS 007 (subtype B), 93IN101 (subtype C), and 92TH009 (subtype A/E), 50 µl of an inhibitor at graded concentration in triplicate was incubated with the same volume of a primary HIV-1 isolate at 100 TCIID50 at 37 °C for 30 min, followed by addition of 100 µl of CEMx174 5.25M7 cells (5×10^5/ml). After incubation at 37 °C overnight, the culture medium was replaced with fresh medium without inhibitor. On day 7 postinfection, the culture supernatants were collected for measuring p24 by ELISA, and the percent inhibition and EC50 values were calculated using Calcusyn

HIV-1 NL4-3 (36G)V38A = conditions: read-out: EC50, NL4-3 mutant (36G)V38A; T20-resistant strain; triplicate, mean ± SD
HIV-1BaL = type: cell-based
[4] = Sedimentation velocity analysis (SVA); type: physicochemical; design: Sedimentation coefficient: unit not given here; conditions: 120 μM in PBS pH 7.4, 60,000 rpm, 20 °C
Description: Sedimentation velocity analysis (SVA). All measurements were performed on a ProteomelabTMXL-A/XL-I analytical ultracentrifuge (Beckman Coulter, Fullerton, CA, USA) at 20 °C, as described previously. In brief, three-channel cells were used with an An-60 Tirotor. Lyophilized N-peptides were resuspended in ddH2O (pH 7.0) at ~1 mg/mL. The individual proteins and their mixtures with an equimolar amount of C34 peptide were prepared in PBS and incubated at 37 °C for 30 min. All samples were prepared at a final concentration of 120 μM and were initially scanned at 3000 rpm for 10 min to identify the appropriate wavelength for data collection. Data were collected at 60,000 rpm at a wavelength […]
of 280 nm. […]

HIV-1IIIB = type: cell-based
HIV-1 NL4-3(D36G) = experiment: Activity against T20-sensitive strain; type: cell-based; conditions: triplicate, mean ± SD, read-out: EC50, NL4-3 mutant D36G
[5] = test system: HIV-1 NL4-3 (36G)V38A/N42T; conditions: read-out: EC50, NL4-3 mutant (36G)V38A/N42T; T20-resistant strain; triplicate, mean ± SD
US4/GS 007 (B, R5) = experiment: Infection by primary HIV-1 isolate, p24 ELISA; type: cell-based; conditions: CEMx174 5.25M7 cells, 100 TCID50, p24 ELISA day 7; triplicate, mean ± SD; read-out: EC50 for inhibiting US4/GS 007 (B, R5)
Description: as §1

92TH009 (A/E, R5) = experiment: Infection by primary HIV-1 isolate, p24 ELISA; type: cell-based; conditions: CEMx174 5.25M7 cells, 100 TCID50, p24 ELISA day 7; triplicate, mean ± SD; read-out: EC50 for inhibiting 92TH009 (A/E, R5)
Description: as §1

proteinase K = proteinase K (Parengyodontium album, UniProt P06873); experiment: Metabolic stability in proteinase K solution; type: in vitro ADME; conditions: 10 μg/mL, LC-MS/MS, compared with T20
Sequence of proteinase K (P06873 106-384): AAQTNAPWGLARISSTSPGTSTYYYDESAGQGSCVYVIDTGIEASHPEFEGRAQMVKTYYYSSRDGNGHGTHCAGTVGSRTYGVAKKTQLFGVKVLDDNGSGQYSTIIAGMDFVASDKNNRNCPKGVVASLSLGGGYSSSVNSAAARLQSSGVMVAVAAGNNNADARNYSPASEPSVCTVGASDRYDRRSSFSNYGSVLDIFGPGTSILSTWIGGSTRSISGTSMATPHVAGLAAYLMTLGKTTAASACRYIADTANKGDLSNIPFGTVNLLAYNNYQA
Description: (§2) Tricine-sodium dodecyl sulfate-polyacrylamide gel electrophoresis (Tricine-SDS-PAGE). Polyacrylamide gels (12%) and a BayGene Mini Cell were used for Tricine-SDS-PAGE. The cathode buffer consisted of 0.1 M Tricine, 0.1 M Tris, and 1% SDS, and the anode buffer was 0.2 M Tris. After incubation at 37 °C for 0–24 h, the samples were mixed with Tris-SDS-glycine sample buffer (Invitrogen, Carlsbad, CA) at a ratio of 1:1 and then loaded onto the gels (20 μL/well). Gel electrophoresis was first carried out at a constant voltage of 60 V at room temperature for 1 h and then carried out at a constant voltage of 120 V at room temperature for 2 h. The gel was then stained with Bio-Rad Bio-Safe […]
(§3) Binding assays by size-exclusion chromatography. C34 was mixed with N-peptides (final concentration = 0.20 mM) at a molar ratio of 1:1 in PBS (pH 7.4) and incubated at 37 °C for 30 min. The peptide or peptide mixture (20 μL) was applied to a Phenomenex BioSep-SEC-s2000, 300 mm × 7.80 mm HPLC column equilibrated with PBS (pH 7.4) and eluted at 0.6 mL/min, and the fractions were monitored at 210 nm. Column pressure was 3.5 Mpa.
(§4) Qualification assay. Chromatographic analyses were performed using an ODS-C8 column (5 μm, 100 mm × 2.0mm ID) kept at ambient temperature. The mobile phase was composed of acetonitrile-water-formic acid in the ratio of 60:40:0.1 (v/v/v) at a flow rate of 0.3 mL/min. […]

[6] = test system: HIV-1 Env-mediated cell–cell fusion; conditions: read-out: EC50 for inhibiting cell–cell fusion; HL2/3 and TZM-bl cells coincubated 6–8 h, 37°C, luciferase; triplicate, mean ± SD
Description: Cell-cell fusion assay. Cell-cell fusion assays were performed as described previously.1 HL2/3 cells, which stably
express HIV Gag, Env, Tat, Rev, and Nef proteins, as well as TZM-bl cells, which stably express large amounts of CD4
and CCR5, were obtained from the NIH AIDS Reference and Reagent Program (contributed by Drs. Barbara Felber and
George Pavlakis and Drs. John C. Kappes and Xiaoyun Wu, respectively). TZM-bl cells (2.5 × 10^4/well) and HL2/3 cells
(7.5 × 10^4/well) were coincubated in 96-well plates (Corning Costar) at 37°C in 5% CO2 in the presence of different
concentrations of inhibitors. After incubation for 6–8 h, the medium was aspirated, the cells were washed and lysed, and
luciferase activity was measured using the Luciferase Assay System (Promega, Madison, WI) on a SpectraMax M5 plate
reader (Molecular Devices, Sunnyvale, CA).

[7] = CD spectroscopy and CD thermal denaturation; type: physicochemical; conditions: 10 μM peptide in PBS pH 7.4
Excerpt: software as described above. 2
Circular dichroism (CD) spectroscopy.

[8] = Metabolic stability in rat plasma; type: in vitro ADME; conditions: 10 μg/mL, LC-MS/MS, compared with T20
Description: as §2, §3, §4

[9] = CEMx174 5.25M7 cells, 100 TCID50, p24 ELISA day 7, triplicate, mean ± SD, read-out: EC50 for inhibiting 93IN101 (C, R5)
[10] = triplicate, mean ± SD, read-out: EC50 for inhibiting HIV-1BaL infection
[11] = triplicate, mean ± SD, read-out: EC50 for inhibiting HIV-1IIIB infection

Row | Substance | CC50 at 96 h (Cytotoxicity, XTT assay) | EC50 [3] | EC50 (93IN101 (C, R5); [9]) | EC50 (HIV-1 NL4-3 (36G)V38A) | EC50 (HIV-1BaL; [10]) | EC50 (HIV-1IIIB; [11]) | EC50 (HIV-1 NL4-3(D36G)) | EC50 [5] | EC50 (US4/GS 007 (B, R5)) | EC50 (92TH009 (A/E, R5)) | EC50 [6] | other results
1 | I: Ac-SGIVQKINNIERAIEAQQHLLQLTVWGIKQLQARIL-NH2 / II: Ac-SGIVQKINNIERAIEAQQHLLQLTVWGIKQLQARIL-NH2 / III: Ac-SGIVQKINNIERAIEAQQHLLQLTVWGIKQLQARIL-NH2 (amide I:6-III:11, I:11-II:6, II:11-III:6) [(N36M)3] | > 50000 nM | 6 ± 3.7 nM | 5.9 ± 2 nM | 14.5 ± 1.5 nM | 8.6 ± 3.1 nM | 2.67 ± 0.1 nM | 20.2 ± 2.7 nM | 10.2 ± 1.3 nM | 9.4 ± 1.2 nM | 1.5 ± 0.1 nM | 4 ± 0.4 nM | Metabolic stability in kidney homogenate [1]: dramatically increased in vitro metabolic stability over T20; Metabolic stability in liver homogenate [2]: dramatically increased in vitro metabolic stability over T20; Sedimentation coefficient ([4]; 280 nm, SEDFIT): 1.39; Observed molecular mass (SVA) ([4]; oligomeric state): 12.5 kDa; Metabolic stability in proteinase K solution (proteinase K): dramatically increased in vitro metabolic stability over T20; Tm (thermal unfolding transition) ([7]; CD at 222 nm, 15 to 90 °C at 2 °C/min): > 90 °C; Helicity ([7]; CD, mean residue ellipticity at 222 nm): 82%; Metabolic stability in rat plasma [8]: dramatically increased in vitro metabolic stability over T20
2 | I: Ac-SEIVKKINNIERAIEAQQHLLQLTVWGIKQLQARIL-NH2 / II: Ac-SEIVKKINNIERAIEAQQHLLQLTVWGIKQLQARIL-NH2 / III: Ac-SEIVKKINNIERAIEAQQHLLQLTVWGIKQLQARIL-NH2 (amide I:6-III:11, I:11-II:6, II:11-III:6) [(N36MEK1)3] | 17300 ± 1600 nM | 22.2 ± 2.8 nM | 20.1 ± 5.6 nM | 126 ± 31 nM | 74.3 ± 6.5 nM | 11.2 ± 4.9 nM | 106 ± 16 nM | 71 ± 6.1 nM | 29.2 ± 11.2 nM | 14.5 ± 4.1 nM | 59 ± 8.7 nM | –
3 | I: Ac-SEIVKKINNIERAIEAQQKLLQLTVWGIKQLQARIL-NH2 / II: Ac-SEIVKKINNIERAIEAQQKLLQLTVWGIKQLQARIL-NH2 / III: Ac-SEIVKKINNIERAIEAQQKLLQLTVWGIKQLQARIL-NH2 (amide I:6-III:11, I:11-II:6, II:11-III:6) [(N36MEK2)3] | 18900 ± 2600 nM | 4.9 ± 2.9 nM | 5.2 ± 0.9 nM | 21.7 ± 2.3 nM | 20.4 ± 2.5 nM | 4.7 ± 0.6 nM | 19.4 ± 1.9 nM | 8.1 ± 1.2 nM | 7.1 ± 2.5 nM | 1.5 ± 0.6 nM | 27.1 ± 2.5 nM | –
4 | Enfuvirtide | – | > 2000 nM | – | 620 ± 103 nM | – | – | – | 539 ± 33 nM | 20.4 ± 2.9 nM | 19 ± 0.5 nM | 1.2 ± 0.01 nM | EC50 (93IN101 (C, R5)): 22.1 ± 0.9 nM; EC50 (HIV-1BaL): 34.1 ± 9.4 nM; EC50 (HIV-1IIIB): 57.8 ± 3.2 nM
